Results on 1 compound are retold here after PMC11729425 (ACS Pharmacology & Translational Science, 2024).

Series [1] deals with Aged C57BL/6J mice. Briefly: Uphill running. It is filed as in vivo, C57BL/6JRj mice. The conditions noted are these: 1 mg/kg in the food, week 13, trend for improvement. As for the experimental part:
Animals were placed on a treadmill at a speed of 15 cm/s in the beginning, then speed was increased by 3 cm/s every 12 min, with an incline of 5°. Mice were taken off the treadmill if they were considered exhausted (5 or more shocks (0.1 mA) per minute for two consecutive minutes) or if the maximum duration of the test was reached (3 h). The maximum running time before exhaustion was recorded and registered as maximum uphill running time.[34]

Series [2] has as its system Aged C57BL/6J mice. The experiment in a line: Oral glucose tolerance test (oGTT) in aged mice. The format is in vivo, C57BL/6JRj mice. Particulars: 1 mg/kg in the food, week 17. As for the experimental part: For OGTT, mice underwent an overnight fast, and on the morning of the experiment, they were administered a gavage consisting of a 20% glucose solution in water (10 mL [2 g]/kg body weight). Blood glucose levels were monitored from the tail vein using a glucometer prior to the gavage and at 15, 30, 45, 60, 90, 120, 150, and 180 min thereafter. Additionally, blood samples were collected at 0 min (pregavage), 15 and 30 min to assess fasting insulin levels and glucose-stimulated insulin secretion. oGTT was performed 17 weeks post experiment onset as indicated in Figure 2A.

On the set-up of series [3]: method as in PMID 29669694. Particulars: compared to Myriocin; cited from earlier work.
Series [4] can be described thus: 10-day food admix tolerability in mice (body weight, food intake, plasma AST, ALT, CK). The format is in vivo. Particulars: 10 days. The procedure:
(A) Schematic representation of the de novo sphingolipid synthesis pathway. (B) Chemical structures of myriocin (MYR) and ALT-007. (C) Heatmap analysis comparing the effects of treatments with the indicated concentrations of MYR and ALT-007 on lipid species in C2C12 cells. N = 3 per group. Data are shown as log2 fold change. (D) Body weight curves of mice treated with ALT-007 or vehicle (4 mg/kg/d for 10 days, in the food). (E) Mean food consumption measurement throughout the treatment. (F) Plasma levels of aspartate transaminase (AST), (G) alanine transaminase (ALT) and (H) creatine kinase (CK) after 10 days of treatment with ALT-007 at 4 mg/kg/day. (I) Ceramide levels measured in the gastrocnemius muscle after 10 days of treatment. N = 8 per group. Quantitative data are expressed as median with min to max values. *P < 0.05, **P < 0.01, ***P < 0.001. ANOVA test was used for multiple comparison, and the Mann–Whitney U test when comparing 2 groups. All tests were 2 sided. Abbreviation: SPT, serine palmitoyltransferase; CK, creatine kinase; MYR, Myriocin; ns, nonsignificant.
Plasma parameters were assessed using samples diluted two times (at a 1:1 ratio of plasma to diluent) with the DimensionXpand Plus system from Siemens Healthcare Diagnostics. The biochemical tests were conducted in accordance with the manufacturer’s instructions for each specific parameter. These parameters included transaminase AST (DF41A), transaminase ALT (DF143) and creatine kinase (11097640), all provided by Siemens Healthcare.

The test system of the next series is N2 wild-type C. elegans. The experiment in a line: Lifespan measurements in C. elegans. The format is in vivo, Caenorhabditis elegans. As for the experimental part:
Lifespan assays were conducted at 20 °C unless otherwise noted. Synchronous populations were generated by hypochlorite treatment of gravid adults to obtain tightly synchronized embryos, which were then allowed to develop into adulthood under defined conditions. 20–25 worms were placed on NGM plates containing 5-FU seeded with E. coli OP50 bacteria. ALT-007 at a final concentration of 5 μM was added to the top of the plates diluted in DMSO, and DMSO was used at the same concentration as a control. Each condition included at least 170 animals per experiment.
The day of egg collection was designated as t = 0. Animals were transferred to fresh plates every 3 days and examined daily for touch-provoked movement and pharyngeal pumping, until death. Worms that died due to internal hatching of eggs, extruded gonads, or desiccation from crawling off the plate were censored accordingly. Each survival assay was repeated at least twice, and figures show representative results.
Survival curves were generated using the Kaplan–Meier product-limit method. The log-rank (Mantel–Cox) test was used to assess differences in survival and calculate P values. Statistical analyses and lifespan values were determined using GraphPad Prism 10 software. Complete lifespan statistics are presented in Supporting Information Table 1.

The test system of series [5] is Aged C57BL/6J mice. The experiment in a line: VO2max test. It is filed as in vivo, C57BL/6JRj mice. Particulars: 1 mg/kg in the food, week 11. As for the experimental part:
VO2max in mice was measured with a calorimetric treadmill (Columbus Instruments) with an incremental speed protocol as previously described.[33]

Series [6] relates to GMC101 and CL2120 amyloid beta expressing animals. Briefly: Amyloid beta aggregation in C. elegans (Western blot). It is filed as in vivo, Caenorhabditis elegans. The procedure:
Figure 5 ALT-007 increases lifespan, improves healthspan and reduces protein aggregation in C. elegans. (A) Median and maximal lifespan of […]. elegans animals treated with ALT-007 or vehicle (5 μM). N = 2 biological replicates with at least 170 animals per group. (B) Paralysis and movement analysis of amyloid beta (Ab)-expressing animals treated with ALT-007 or vehicle (1 μM) at day 1 of adulthood. N = 2 biological replicates with at least 50 animals per group. (C) Amyloid aggregation upon ALT-007 treatment and DMSO as a control in GMC101 and CL2120 amyloid beta expressing animals and their respective controls. N = 3 biological replicates with at least 100 animals per group. (D) Quantification of amyloid beta (Ab) levels upon ALT-007 treatment. The log-rank (Mantel-Cox) test was used to evaluate differences between survival curves as indicated in Supplementary Table 1. two-tailed t-test was performed for two-group analysis and one-way analysis of variance (ANOVA) for three-group analysis. Sample preparation: Synchronized animal populations were collected and washed in M9 buffer. […] Protein samples were analyzed by Tricine-SDS-polyacrylamide gel electrophoresis (SDS-PAGE) and transferred to nitrocellulose membrane. Proteins were detected using the following antibodies under the manufacturer's conditions: antiβ-actin (Sigma) and antiAmyloid-beta, 1-16 (6E10) (BioLegend).

[7] abbreviates: 4 mg/kg/d in the food, vs DMSO control mice.

As for `COc1cc(C(=O)N2CC[C@H](NC(=O)c3ccccc3OC(F)(F)F)c3c2cnn3C(C)C)cnc1OC` [ALT-007], the “ability to run uphill (maximum running time)” value with Aged C57BL/6J mice [1] is reported as “did not significantly improve”. Moreover, the glucose tolerance test result in the series with Aged C57BL/6J mice [2] is reported as “no difference”. For the same compound, the metabolic stability entry in series [3] is recorded as “improved”. In addition, in series [4] (setting [7]), the body weight entry was “no differences” and the food intake entry is given as “no differences”. In series [4] (4 mg/kg/day), the “hepatic toxicity by plasma transaminase (AST, ALT) levels” value is “neither hepatic nor muscle toxicity was identified” and the “muscle toxicity by plasma creatine kinase (CK) levels” value was “neither hepatic nor muscle toxicity was identified”. The “toxicity for animal development” value in the series with N2 wild-type C. elegans (C. elegans, administration at the embryo stage) is “nontoxic for animal development”. In the series with N2 wild-type C. elegans (N2 wild-type, 5 μM, 20 °C), the maximal lifespan result is reported as “significantly increased” and the median lifespan result was “significantly increased”. Further, the VO2max entry in the series with Aged C57BL/6J mice [5] was “significantly higher”. Further, the amyloid beta aggregation entry in series [6] (CL2120 strain (CL2122 as a control)) is on record as “reduce aggregation”. The amyloid beta aggregates result in series [6] (GMC101 worms) is “reducing amyloid beta aggregates”.
